System: 994946-033-R-J1-PDC complex spheroid viability
Assay: Anticancer human tumor 994946-033-R-J1-PDC patient-derived melanoma cell line growth inhibition [POLQ]
Conditions: for IC50: curve of first compound; for viability, T/C: stronger effect = lower value
Outline: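 Three-cell-type spheroids modelling solid tumor plus stroma served as the readout system; POL inhibitors were tested individually and in combination, concentration ranges set by clinical Cmax where known.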

[1] = second compound 0.0316 µM, first compound 0.0316 µM
[2] = second compound 0.0316 µM, first compound 0.1 µM
[3] = second compound 0.0316 µM, first compound 0.316 µM
[4] = second compound 0.0316 µM, first compound 1 µM
[5] = second compound 0.0316 µM, first compound 3.16 µM
[6] = second compound 0.0316 µM, first compound 10 µM
[7] = second compound 0.1 µM, first compound 0.0316 µM
[8] = second compound 0.1 µM, first compound 0.1 µM
[9] = second compound 0.1 µM, first compound 0.316 µM
[10] = second compound 0.1 µM, first compound 1 µM
[11] = second compound 0.1 µM, first compound 3.16 µM
[12] = second compound 0.1 µM, first compound 10 µM
[13] = second compound 0.316 µM, first compound 0.0316 µM
[14] = second compound 0.316 µM, first compound 0.1 µM
[15] = second compound 0.316 µM, first compound 0.316 µM
[16] = second compound 0.316 µM, first compound 1 µM
[17] = second compound 0.316 µM, first compound 3.16 µM
[18] = second compound 0.316 µM, first compound 10 µM
[19] = second compound 1 µM, first compound 0.0316 µM
[20] = second compound 1 µM, first compound 0.1 µM
[21] = second compound 1 µM, first compound 0.316 µM
[22] = second compound 1 µM, first compound 1 µM
[23] = second compound 1 µM, first compound 3.16 µM
[24] = second compound 1 µM, first compound 10 µM
[25] = second compound 3.16 µM, first compound 0.0316 µM
[26] = second compound 3.16 µM, first compound 0.1 µM
[27] = second compound 3.16 µM, first compound 0.316 µM
[28] = second compound 3.16 µM, first compound 1 µM
[29] = second compound 3.16 µM, first compound 3.16 µM
[30] = second compound 3.16 µM, first compound 10 µM
[31] = second compound 10 µM, first compound 0.0316 µM
[32] = second compound 10 µM, first compound 0.1 µM
[33] = second compound 10 µM, first compound 0.316 µM
[34] = second compound 10 µM, first compound 1 µM
[35] = second compound 10 µM, first compound 3.16 µM
[36] = second compound 10 µM, first compound 10 µM
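Note: spheroids exposed to drugs for 7 days.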
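Throughout, for viability, T/C: 100% = DMSO vehicle treated spheroids.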

For `CNCc1ccc(-c2[nH]c3cc(F)cc4c3c2CCNC4=O)cc1` + Nc1ccc(C#CCN(C(=O)Cc2ncc(C(F)(F)F)cc2C(F)(F)F)c2ccc(F)cc2)nn1, the IC50 (second compound 0.0316 µM) was over 10 µM, the IC50 (second compound 0.1 µM) was over 10 µM and the IC50 (second compound 0.316 µM) was over 10 µM. For the same compound, the IC50 (second compound 1 µM) was over 10 µM, the IC50 (second compound 3.16 µM) was over 10 µM and the IC50 (second compound 10 µM) was over 10 µM. It also gave a viability, T/C [1] of 97.4%, a viability, T/C [2] of 84.1% and a viability, T/C [3] of 84%. For the same compound, the viability, T/C [4] was 85.3%, the viability, T/C [5] was 94.5% and the viability, T/C [6] was 79%. The viability, T/C [7] was 77.9%, the viability, T/C [8] was 83.1% and the viability, T/C [9] was 99.7%. For the same compound, the viability, T/C [10] was 61.5%, the viability, T/C [11] was 95.8% and the viability, T/C [12] was 70.6%. The viability, T/C [13] was 81.7%, the viability, T/C [14] was 86.4% and the viability, T/C [15] was 90%. For the same compound, the viability, T/C [16] was 68.8%, the viability, T/C [17] was 77.2% and the viability, T/C [18] was 69.1%. For the same compound, the viability, T/C [19] was 73.4%, the viability, T/C [20] was 69.2% and the viability, T/C [21] was 107%. The viability, T/C [22] was 77.9%, the viability, T/C [23] was 103% and the viability, T/C [24] was 63.1%. For the same compound, the viability, T/C [25] was 105%, the viability, T/C [26] was 105% and the viability, T/C [27] was 85%. For the same compound, the viability, T/C [28] was 107%, the viability, T/C [29] was 74.2% and the viability, T/C [30] was 77.5%. For the same compound, the viability, T/C [31] was 72%, the viability, T/C [32] was 74.2% and the viability, T/C [33] was 88.7%. For the same compound, the viability, T/C [34] was 113%, the viability, T/C [35] was 96% and the viability, T/C [36] was 78.3%.
Work on `O=C(Nc1ccc(O)c(NS(=O)(=O)c2ccc(F)cc2)c1)c1ccc(-c2ccccc2)cc1` + COC1C(OC(N)=O)C(O)C(Oc2ccc3c(O)c(NC(=O)c4ccc(O)c(CC=C(C)C)c4)c(=O)oc3c2C)OC1(C)C yielded an IC50 (second compound 0.0316 µM) of 6.64 µM, an IC50 (second compound 0.1 µM) of 6.29 µM and an IC50 (second compound 0.316 µM) of 6.09 µM. For the same compound, the IC50 (second compound 1 µM) was 6.3 µM, the IC50 (second compound 3.16 µM) was 5.45 µM and the IC50 (second compound 10 µM) was 4.58 µM. It also gave a viability, T/C [1] of 87.9%, a viability, T/C [2] of 103% and a viability, T/C [3] of 101%. The viability, T/C [4] was 111%, the viability, T/C [5] was 93% and the viability, T/C [6] was 25.9%. It also gave a viability, T/C [7] of 96%, a viability, T/C [8] of 105% and a viability, T/C [9] of 80.2%. It also gave a viability, T/C [10] of 94.4%, a viability, T/C [11] of 82.6% and a viability, T/C [12] of 27.9%. For the same compound, the viability, T/C [13] was 99%, the viability, T/C [14] was 123% and the viability, T/C [15] was 84.3%. It also gave a viability, T/C [16] of 87.3%, a viability, T/C [17] of 85.1% and a viability, T/C [18] of 27.6%. The viability, T/C [19] was 100%, the viability, T/C [20] was 81.8% and the viability, T/C [21] was 109%. For the same compound, the viability, T/C [22] was 111%, the viability, T/C [23] was 78% and the viability, T/C [24] was 31.1%. The viability, T/C [25] was 97.8%, the viability, T/C [26] was 103% and the viability, T/C [27] was 92.3%. For the same compound, the viability, T/C [28] was 83.5%, the viability, T/C [29] was 66.2% and the viability, T/C [30] was 32.4%. The viability, T/C [31] was 82.2%, the viability, T/C [32] was 102% and the viability, T/C [33] was 84.5%. For the same compound, the viability, T/C [34] was 129%, the viability, T/C [35] was 60.1% and the viability, T/C [36] was 28.5%.
In the case of `O=C(c1cc(Cc2n[nH]c(=O)c3ccccc23)ccc1F)N1CCN(C(=O)C2CC2)CC1` + Nc1ccc(C#CCN(C(=O)Cc2ncc(C(F)(F)F)cc2C(F)(F)F)c2ccc(F)cc2)nn1, the IC50 (second compound 0.0316 µM) is reported as 6.71 µM, the IC50 (second compound 0.1 µM) is reported as 6.45 µM and the IC50 (second compound 0.316 µM) is reported as 4.09 µM. For the same compound, the IC50 (second compound 1 µM) was 5.26 µM, the IC50 (second compound 3.16 µM) was 3.82 µM and the IC50 (second compound 10 µM) was 7 µM. The viability, T/C [1] was 116%, the viability, T/C [2] was 88.8% and the viability, T/C [3] was 101%. It also gave a viability, T/C [4] of 72.6%, a viability, T/C [5] of 76.6% and a viability, T/C [6] of 37.3%. The viability, T/C [7] was 61.7%, the viability, T/C [8] was 113% and the viability, T/C [9] was 70.5%. The viability, T/C [10] was 78.6%, the viability, T/C [11] was 83.5% and the viability, T/C [12] was 30.6%. For the same compound, the viability, T/C [13] was 101%, the viability, T/C [14] was 84.9% and the viability, T/C [15] was 84%. The viability, T/C [16] was 55.8%, the viability, T/C [17] was 70.8% and the viability, T/C [18] was 29.6%. It also gave a viability, T/C [19] of 78.9%, a viability, T/C [20] of 111% and a viability, T/C [21] of 66%. It also gave a viability, T/C [22] of 92.8%, a viability, T/C [23] of 55.9% and a viability, T/C [24] of 42.6%. The viability, T/C [25] was 94.8%, the viability, T/C [26] was 80.3% and the viability, T/C [27] was 77.8%. The viability, T/C [28] was 58.8%, the viability, T/C [29] was 57.9% and the viability, T/C [30] was 37.1%. It also gave a viability, T/C [31] of 66.4%, a viability, T/C [32] of 87.3% and a viability, T/C [33] of 70.3%. It also gave a viability, T/C [34] of 92.3%, a viability, T/C [35] of 80.1% and a viability, T/C [36] of 36.8%.
In the case of `CCc1c2c(nc3ccc(O)cc13)-c1cc3c(c(=O)n1C2)COC(=O)[C@]3(O)CC` + COC1C(OC(N)=O)C(O)C(Oc2ccc3c(O)c(NC(=O)c4ccc(O)c(CC=C(C)C)c4)c(=O)oc3c2C)OC1(C)C, the IC50 (second compound 0.0316 µM) is reported as under 0.00316 µM, the IC50 (second compound 0.1 µM) is reported as under 0.00316 µM and the IC50 (second compound 0.316 µM) is reported as under 0.00316 µM. The IC50 (second compound 1 µM) was under 0.00316 µM, the IC50 (second compound 3.16 µM) was under 0.00316 µM and the IC50 (second compound 10 µM) was under 0.00316 µM. It also gave a viability, T/C (second compound 0.0316 µM, first compound 0.00316 µM) of 21.2%, a viability, T/C (second compound 0.0316 µM, first compound 0.01 µM) of 10.5% and a viability, T/C [1] of 5.04%. It also gave a viability, T/C [2] of 6.46%, a viability, T/C [3] of 4.53% and a viability, T/C [4] of 1.07%. It also gave a viability, T/C (second compound 0.1 µM, first compound 0.00316 µM) of 14.8%, a viability, T/C (second compound 0.1 µM, first compound 0.01 µM) of 7.14% and a viability, T/C [7] of 4.91%. It also gave a viability, T/C [8] of 4.35%, a viability, T/C [9] of 3.22% and a viability, T/C [10] of 0.99%. It also gave a viability, T/C (second compound 0.316 µM, first compound 0.00316 µM) of 20.7%, a viability, T/C (second compound 0.316 µM, first compound 0.01 µM) of 8.29% and a viability, T/C [13] of 4.94%. It also gave a viability, T/C [14] of 5%, a viability, T/C [15] of 3.67% and a viability, T/C [16] of 0.92%. It also gave a viability, T/C (second compound 1 µM, first compound 0.00316 µM) of 21.2%, a viability, T/C (second compound 1 µM, first compound 0.01 µM) of 8.21% and a viability, T/C [19] of 5.36%. The viability, T/C [20] was 4.87%, the viability, T/C [21] was 3% and the viability, T/C [22] was 0.93%. It also gave a viability, T/C (second compound 3.16 µM, first compound 0.00316 µM) of 17.8%, a viability, T/C (second compound 3.16 µM, first compound 0.01 µM) of 9.17% and a viability, T/C [25] of 4.15%. It also gave a viability, T/C [26] of 4.13%, a viability, T/C [27] of 3.2% and a viability, T/C [28] of 0.9%. It also gave a viability, T/C (second compound 10 µM, first compound 0.00316 µM) of 16.8%, a viability, T/C (second compound 10 µM, first compound 0.01 µM) of 6.62% and a viability, T/C [31] of 5.93%. It also gave a viability, T/C [32] of 4.77%, a viability, T/C [33] of 2.81% and a viability, T/C [34] of 1.02%.

Source: PubChem BioAssay AID1963827 (Molecular Pharmacology Branch, DTP, NCI, 2024)
